Read-outs that look alike come from different tables or passages of the source.
Experiments:
most of the fungal = details: for most of the fungal; cited from earlier work
Candida albicans = test: Test of antibacterial activity in vitro (bacteria-inhibition zone); type: cell-based; details: for zone of inhibition at 1.4 µg/mL / zone of inhibition at 2.8 µg/mL: Candida albicans
From the text: (§1) Test of Antibacterial Activity In Vitro
(§2) Experiment drugs: the polyene diester compounds prepared by examples 1-12
(§3) Control drugs: amphotericin B (standard product) • mycostatin (standard product) • natamycin (standard product)
2.1 Preparation of Candida albicans suspension: PHARMACOPOEIA OF THE PEOPLES REPUBLIC OF CHINA, second part, 2005 edition, appendix p 81-84.
(§4) Taking appropriate amount of the above mentioned amphotericin B, mycostatin, natamycin and the polyene diester compounds prepared by examples 1-8 and 10-12, dissolving in a little dimethyl sulfoxide respectively, using pH7 phosphate buffer to dilute into solution which is equivalent to contain amphotericin B, mycostatin, natamycin 280 Units per milliliter, taking 1 ml and using pH7 phosphate buffer to quantitatively dilute into solution which is equivalent to contain amphotericin B 1.4 μg/ml and 2.8 μg/ml, and is equivalent to contain 5.6 μg/ml of mycostatin and natamycin.
(§5) In addition, preparing the solution according to the same method, adding 40% defibered sheep serum, using pH7 phosphate buffer to quantitatively dilute into unit solution which is equivalent to contain amphotericin B 1.4 μg/ml and 2.8 μg/ml, and is equivalent to contain 5.6 μg/ml of mycostatin and natamycin. Testing according to PHARMACOPOEIA OF THE PEOPLES REPUBLIC OF CHINA, second part, 2005 edition, appendix XIA The Antibiotics Microorganism Test.
(§6) Medium: Improved Martin Agar Medium, PHARMACOPOEIA OF THE PEOPLES REPUBLIC OF CHINA, second part, 2005 edition, appendix p 84.
Test method: Double-plate counting method; […] bacteria bed 15 ml to replace the double layers, culture temperature: 37° C., time: 24 h; strain concentration: 1% […]

Saccharomyces cerevisiae = test: as above; type: cell-based; details: for zone of inhibition at 1.4 µg/mL / zone of inhibition at 2.8 µg/mL: Saccharomyces cerevisiae
From the text: as §1, §2, §3
2.2 Preparation of Saccharomyces cerevisiae suspension: PHARMACOPOEIA OF THE PEOPLES REPUBLIC OF CHINA, second part, 2005 edition, appendix p 80, p 83.
as §4, §5, §6
(§7) Test method: Double-plate counting method; […] bacteria bed 15 ml to replace the double layers, culture temperature: 37° C., time: 24 h; strain concentration: 1%
(§8) Medium: Modified Martin Broth Medium

Candida mycoderma = test: as above; type: cell-based
From the text: as §1, §2, §3
2.3 Preparation of Candida mycoderrna suspension: the method is as same as preparation of Saccharomyces cerevisiae suspension
as §4, §5, §6, §7, §8

esterase [1] = details: cited from earlier work
[2] = study by Rutgers University; cited from earlier work
esterase [3] = test: Test of esterase hydrolysis in sheep blood serum (HPLC); type: in vitro ADME
Experimental: Test of Esterase […]
Experiment drugs: the amphotericin B methyl pivalate prepared by example 1
Control drug: amphotericin B (standard product)
The stationary phase: Hypersil ODS2 5 um 4.6 mm×250 mm
The mobile phase: methanol: acetonitrile: EDTA-2Na (0.5 mmol)=60:20:20 flow rate: 1 ml/min
Detection system: ultraviolet detection, detection wavelength: 410 nm
Taking appropriate amount of the above mentioned amphotericin B, and amphotericin B methyl pivalate prepared by example 1, dissolving in a little dimethyl sulfoxide respectively, using pH7 phosphate buffer to dilute into solution which is equivalent to contain amphotericin B 280 Units per milliliter, taking 1 ml and using pH7 phosphate buffer to quantitatively dilute into solution which is equivalent to contain amphotericin B 2.8 μg/ml.
Again, preparing the solution according to the same method, adding 10% defibered sheep blood serum, using pH7 phosphate buffer to quantitatively dilute into solution which is equivalent to contain amphotericin B 2.8 μg/ml.
4. Mixing the amphotericin B methyl pivalate prepared by example 1 with sheep blood serum at 37° C. and culturing.
Referring to the test conditions of HPLC of example 25, wherein the mobile phase is acetonitrile: 0.05M ammonium acetate solution=60:40.

[4] = 0 h, 1.4 μg/ml after conversion, no serum
[5] = 0 h, 1.4 μg/ml after conversion, serum added (40% defibered sheep serum)
[6] = 0 h, 2.8 μg/ml after conversion, no serum
[7] = 0 h, 2.8 μg/ml after conversion, serum added (40% defibered sheep serum)
[8] = 6 h, 1.4 μg/ml after conversion, no serum
[9] = 6 h, 1.4 μg/ml after conversion, serum added (40% defibered sheep serum)
[10] = 6 h, 2.8 μg/ml after conversion, no serum
[11] = 24 h, 1.4 μg/ml after conversion, no serum
[12] = 24 h, 2.8 μg/ml after conversion, no serum
[13] = 48 h, 1.4 μg/ml after conversion, no serum
[14] = 48 h, 2.8 μg/ml after conversion, no serum

C[C@@H]1[C@H](O)[C@@H](C)/C=C/C=C/C=C/C=C/C=C/C=C/C=C/[C@H](O[C@@H]2O[C@H](C)[C@@H](O)[C@H](N)[C@@H]2O)C[C@@H]2O[C@](O)(C[C@@H](O)C[C@@H](O)[C@H](O)CC[C@@H](O)C[C@@H](O)CC(=O)O[C@H]1C)C[C@H](O)[C@H]2C(=O)O [amphotericin B, reference compound]
minimum inhibitory concentration (MIC) (most of the fungal): 0.02 to 1 µg/mL
zone of inhibition at 1.4 µg/mL (Candida albicans; 0 h, 1.4 μg/ml after conversion, serum added (40% defibered sheep serum), read-out: diameter of the bacteria-inhibition zone, Candida albicans 0 h): 12 to 14 mm
zone of inhibition at 2.8 µg/mL (Candida albicans; 0 h, 2.8 μg/ml after conversion, no serum, read-out: diameter of the bacteria-inhibition zone, Candida albicans 0 h): 14 to 16 mm
zone of inhibition at 1.4 µg/mL (Candida albicans; 6 h, 1.4 μg/ml after conversion, serum added (40% defibered sheep serum), read-out: diameter of the bacteria-inhibition zone, Candida albicans 6 h): 12 to 14 mm
zone of inhibition at 2.8 µg/mL (Candida albicans; 6 h, 2.8 μg/ml after conversion, no serum, read-out: diameter of the bacteria-inhibition zone, Candida albicans 6 h): 14 to 16 mm
zone of inhibition at 1.4 µg/mL (Candida albicans; 24 h, 1.4 μg/ml after conversion, serum added (40% defibered sheep serum), read-out: diameter of the bacteria-inhibition zone, Candida albicans 24 h): 12 to 14 mm
zone of inhibition at 2.8 µg/mL (Candida albicans; 24 h, 2.8 μg/ml after conversion, no serum, read-out: diameter of the bacteria-inhibition zone, Candida albicans 24 h): 14 to 16 mm
zone of inhibition at 1.4 µg/mL (Candida albicans; 48 h, 1.4 μg/ml after conversion, serum added (40% defibered sheep serum), read-out: diameter of the bacteria-inhibition zone, Candida albicans 48 h): 12 to 14 mm
zone of inhibition at 2.8 µg/mL (Candida albicans; 48 h, 2.8 μg/ml after conversion, no serum, read-out: diameter of the bacteria-inhibition zone, Candida albicans 48 h): 14 to 16 mm
zone of inhibition at 1.4 µg/mL (Saccharomyces cerevisiae; 0 h, 1.4 μg/ml after conversion, serum added (40% defibered sheep serum), read-out: diameter of the bacteria-inhibition zone, Saccharomyces cerevisiae 0 h): 14 to 16 mm
zone of inhibition at 2.8 µg/mL (Saccharomyces cerevisiae; 0 h, 2.8 μg/ml after conversion, no serum, read-out: diameter of the bacteria-inhibition zone, Saccharomyces cerevisiae 0 h): 16 to 18 mm
zone of inhibition at 1.4 µg/mL (Saccharomyces cerevisiae; 6 h, 1.4 μg/ml after conversion, serum added (40% defibered sheep serum), read-out: diameter of the bacteria-inhibition zone, Saccharomyces cerevisiae 6 h): 14 to 16 mm
zone of inhibition at 2.8 µg/mL (Saccharomyces cerevisiae; 6 h, 2.8 μg/ml after conversion, no serum, read-out: diameter of the bacteria-inhibition zone, Saccharomyces cerevisiae 6 h): 16 to 18 mm
zone of inhibition at 1.4 µg/mL (Saccharomyces cerevisiae; 24 h, 1.4 μg/ml after conversion, serum added (40% defibered sheep serum), read-out: diameter of the bacteria-inhibition zone, Saccharomyces cerevisiae 24 h): 14 to 16 mm
zone of inhibition at 2.8 µg/mL (Saccharomyces cerevisiae; 24 h, 2.8 μg/ml after conversion, no serum, read-out: diameter of the bacteria-inhibition zone, Saccharomyces cerevisiae 24 h): 16 to 18 mm
zone of inhibition at 1.4 µg/mL (Saccharomyces cerevisiae; 48 h, 1.4 μg/ml after conversion, serum added (40% defibered sheep serum), read-out: diameter of the bacteria-inhibition zone, Saccharomyces cerevisiae 48 h): 14 to 16 mm
zone of inhibition at 2.8 µg/mL (Saccharomyces cerevisiae; 48 h, 2.8 μg/ml after conversion, no serum, read-out: diameter of the bacteria-inhibition zone, Saccharomyces cerevisiae 48 h): 16 to 18 mm
zone of inhibition at 1.4 µg/mL (Candida mycoderma; 0 h, 1.4 μg/ml after conversion, serum added (40% defibered sheep serum), read-out: diameter of the bacteria-inhibition zone, Candida mycoderma 0 h): 12 to 14 mm
zone of inhibition at 2.8 µg/mL (Candida mycoderma; 0 h, 2.8 μg/ml after conversion, no serum, read-out: diameter of the bacteria-inhibition zone, Candida mycoderma 0 h): 14 to 16 mm
zone of inhibition at 1.4 µg/mL (Candida mycoderma; 6 h, 1.4 μg/ml after conversion, serum added (40% defibered sheep serum), read-out: diameter of the bacteria-inhibition zone, Candida mycoderma 6 h): 12 to 14 mm
zone of inhibition at 2.8 µg/mL (Candida mycoderma; 6 h, 2.8 μg/ml after conversion, no serum, read-out: diameter of the bacteria-inhibition zone, Candida mycoderma 6 h): 14 to 16 mm
zone of inhibition at 1.4 µg/mL (Candida mycoderma; 24 h, 1.4 μg/ml after conversion, serum added (40% defibered sheep serum), read-out: diameter of the bacteria-inhibition zone, Candida mycoderma 24 h): 12 to 14 mm
zone of inhibition at 2.8 µg/mL (Candida mycoderma; 24 h, 2.8 μg/ml after conversion, no serum, read-out: diameter of the bacteria-inhibition zone, Candida mycoderma 24 h): 14 to 16 mm
zone of inhibition at 1.4 µg/mL (Candida mycoderma; 48 h, 1.4 μg/ml after conversion, serum added (40% defibered sheep serum), read-out: diameter of the bacteria-inhibition zone, Candida mycoderma 48 h): 12 to 14 mm
zone of inhibition at 2.8 µg/mL (Candida mycoderma; 48 h, 2.8 μg/ml after conversion, no serum, read-out: diameter of the bacteria-inhibition zone, Candida mycoderma 48 h): 14 to 16 mm

COC(=O)[C@H]1[C@@H]2C[C@@H](O[C@@H]3O[C@H](C)[C@@H](O)[C@H](N)[C@@H]3O)/C=C/C=C/C=C/C=C/C=C/C=C/C=C/[C@H](C)[C@@H](O)[C@@H](C)[C@H](C)OC(=O)C[C@H](O)C[C@H](O)CC[C@@H](O)[C@H](O)C[C@H](O)C[C@](O)(C[C@@H]1O)O2 [amphotericin methyl ester]
hydrolysis by esterase in vivo (esterase [1]): cannot be hydrolyzed by esterase in vivo
toxicity [2]: toxicity was lowered

amphotericin B methyl pivalate
diameter of the bacteria-inhibition zone, Candida albicans 0 h (Candida albicans; [4]): + (7-9 mm: +)
diameter of the bacteria-inhibition zone, Candida albicans 0 h (Candida albicans; [5]): + (7-9 mm: +)
diameter of the bacteria-inhibition zone, Candida albicans 0 h (Candida albicans; [6]): ++ (9-12 mm: ++)
diameter of the bacteria-inhibition zone, Candida albicans 0 h (Candida albicans; [7]): ++ (9-12 mm: ++)
diameter of the bacteria-inhibition zone, Candida albicans 6 h (Candida albicans; [8]): + (7-9 mm: +)
diameter of the bacteria-inhibition zone, Candida albicans 6 h (Candida albicans; [9]): ++ (9-12 mm: ++)
diameter of the bacteria-inhibition zone, Candida albicans 6 h (Candida albicans; [10]): ++ (9-12 mm: ++)
diameter of the bacteria-inhibition zone, Candida albicans 24 h (Candida albicans; [11]): + (7-9 mm: +)
diameter of the bacteria-inhibition zone, Candida albicans 24 h (Candida albicans; [12]): ++ (9-12 mm: ++)
diameter of the bacteria-inhibition zone, Candida albicans 48 h (Candida albicans; [13]): + (7-9 mm: +)
diameter of the bacteria-inhibition zone, Candida albicans 48 h (Candida albicans; [14]): ++ (9-12 mm: ++)
hydrolysis by esterase to release the original drug, after 24 hours (esterase [3]; 10% defibered sheep blood serum, 37° C., 24 hours): most of the diester derivative is hydrolyzed by esterase to release amphotericin B
hydrolysis by esterase under sheep blood serum cultivation, release of the original drug (esterase [3]; sheep blood serum, 37° C., 2, 6 and 24 hours): gradually hydrolyzed by esterase
diameter of the bacteria-inhibition zone, Saccharomyces cerevisiae 0 h (Saccharomyces cerevisiae; [4]): + (7-9 mm: +)
diameter of the bacteria-inhibition zone, Saccharomyces cerevisiae 0 h (Saccharomyces cerevisiae; [5]): + (7-9 mm: +)
diameter of the bacteria-inhibition zone, Saccharomyces cerevisiae 0 h (Saccharomyces cerevisiae; [6]): ++ (9-12 mm: ++)
diameter of the bacteria-inhibition zone, Saccharomyces cerevisiae 0 h (Saccharomyces cerevisiae; [7]): ++ (9-12 mm: ++)
diameter of the bacteria-inhibition zone, Saccharomyces cerevisiae 6 h (Saccharomyces cerevisiae; [8]): + (7-9 mm: +)
diameter of the bacteria-inhibition zone, Saccharomyces cerevisiae 6 h (Saccharomyces cerevisiae; [10]): ++ (9-12 mm: ++)
diameter of the bacteria-inhibition zone, Saccharomyces cerevisiae 24 h (Saccharomyces cerevisiae; [11]): + (7-9 mm: +)
diameter of the bacteria-inhibition zone, Saccharomyces cerevisiae 24 h (Saccharomyces cerevisiae; [12]): ++ (9-12 mm: ++)
diameter of the bacteria-inhibition zone, Saccharomyces cerevisiae 48 h (Saccharomyces cerevisiae; [13]): + (7-9 mm: +)
diameter of the bacteria-inhibition zone, Saccharomyces cerevisiae 48 h (Saccharomyces cerevisiae; [14]): ++ (9-12 mm: ++)
diameter of the bacteria-inhibition zone, Candida mycoderma 0 h (Candida mycoderma; [4]): + (7-9 mm: +)
diameter of the bacteria-inhibition zone, Candida mycoderma 0 h (Candida mycoderma; [5]): + (7-9 mm: +)
diameter of the bacteria-inhibition zone, Candida mycoderma 0 h (Candida mycoderma; [6]): ++ (9-12 mm: ++)
diameter of the bacteria-inhibition zone, Candida mycoderma 0 h (Candida mycoderma; [7]): ++ (9-12 mm: ++)
diameter of the bacteria-inhibition zone, Candida mycoderma 6 h (Candida mycoderma; [8]): + (7-9 mm: +)
diameter of the bacteria-inhibition zone, Candida mycoderma 6 h (Candida mycoderma; [9]): ++ (9-12 mm: ++)
diameter of the bacteria-inhibition zone, Candida mycoderma 6 h (Candida mycoderma; [10]): ++ (9-12 mm: ++)
diameter of the bacteria-inhibition zone, Candida mycoderma 24 h (Candida mycoderma; [11]): + (7-9 mm: +)
diameter of the bacteria-inhibition zone, Candida mycoderma 24 h (Candida mycoderma; [12]): ++ (9-12 mm: ++)
diameter of the bacteria-inhibition zone, Candida mycoderma 48 h (Candida mycoderma; [13]): + (7-9 mm: +)
diameter of the bacteria-inhibition zone, Candida mycoderma 48 h (Candida mycoderma; [14]): ++ (9-12 mm: ++)
